Calls of active or inactive are those of the source.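 Rule for the calls: active = AC50 no more than ten times the top concentration tested, that is within one log above it; inconclusive = flat curve fit with activity between 30% and 70%, or invalid poor fit; inactive = AC50 beyond ten times the top tested dose.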
Tested on: S. cerevisiae Mot1-301 ts growth rescue, BacTiter-Glo ATP luminescence
Assay: growth rescue of Mot1-301 ts yeast, confirmation, SUMOylation pathway inhibitor project, whole organism, S. cerevisiae, Mot1-301 ts mutant, luminescence, dose retest (AID 463204);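 note: growth at restrictive 38.5 degrees C of Mot1-301 OY566 strain; actives raise luminescence by restoring growth of the ts mutant at high temperature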

Compound	AC50
CCOC(=O)c1sc(N/N=C/c2ccc(N(C)C)cc2)nc1C	> 42 µM (inactive)
C=CCNc1nnc(SC2CC(=O)N(c3ccc(OCCC)cc3)C2=O)s1 (centres undefined)	4.49 µM
Cn1c(NCc2ccco2)nc2c1c(=O)n(Cc1ccc(Cl)cc1)c(=O)n2C	> 42 µM (inactive)
CC(=O)c1c(Nc2cccc(F)c2)oc(C)cc1=O	> 42 µM (inactive)
CC(C)CCn1c(=O)c2ccccc2c2ccccc2c1=O	> 42 µM (inactive)
Cc1ccc(NS(=O)(=O)c2cc(C(=O)Nc3cccc([N+](=O)[O-])c3)ccc2C)cc1	> 42 µM (inactive)
O=C(NCc1nc(-c2ccccc2)no1)c1cccs1	> 42 µM (inactive)
CCC(=O)c1c[nH]c(C(=O)NCCCn2ccnc2)c1	> 42 µM (inactive)
COc1cc(C(=O)Oc2cccnc2)cc(OC)c1OC	> 42 µM (inactive)
CCn1cc(C(=O)N2CCN(c3ccc(OC)cc3)CC2)c(=O)c2cc(S(=O)(=O)N3CCOCC3)ccc21	> 42 µM (inactive)
O=S(=O)(NCc1ccco1)c1ccc2ccccc2c1	> 42 µM (inactive)
Cn1c(=NC(=O)COc2ccccc2)sc2cc(F)cc(F)c21	> 42 µM (inactive)
CC(=O)N/C(=C\c1ccccc1)C(=O)OCC(=O)c1ccccc1	> 42 µM (inactive)
C=CC[N+]1(CC#Cc2ccccc2)CCCC1	> 42 µM (inactive)
O=C(CCNS(=O)(=O)c1cccc2nsnc12)NCCC1=CCCCC1	> 42 µM (inactive)
O=C(COC(=O)c1c(F)cccc1F)c1ccc[nH]1	> 42 µM (inactive)
COc1cccc(OC)c1C(=O)Nc1ccc2c(c1)N(S(=O)(=O)c1cccs1)CCC2	> 42 µM (inactive)
CC(=O)N1CCc2cc(S(=O)(=O)NCCC3=CCCCC3)ccc21	> 42 µM (inactive)
O=C(NCCCn1ccnc1)c1ccc(Cl)cc1	> 42 µM (inactive)
C=CCOc1ccccc1CN1CCCC(CCC(=O)N(C)CCc2ccccn2)C1 (centres undefined)	> 21 µM (inactive)
C=CCN1C(=O)/C(=C2/Sc3ccc(OC)cc3N2C)SC1=Nc1ccccc1	> 42 µM (inactive)
Cc1ccc(Sc2cnccc2C#N)cc1	> 42 µM (inactive)
COc1ccc(C(=O)Nc2ccccc2C(=O)NCCN2CCOCC2)cc1OC	> 42 µM (inactive)
CCN(C(=O)COC(=O)c1cc([N+](=O)[O-])ccc1N1CCOCC1)C1CCCCC1	> 42 µM (inactive)
CCOc1ccccc1Nc1nnc(SCc2nnc(-c3cc(OC)c(OC)c(OC)c3)o2)s1	> 42 µM (inactive)

Compound	AC50
COc1cccc(N=Nc2c(=O)[nH]n3c(=O)cc(C)[nH]c23)c1	> 42 µM (inactive)
COc1ccc(-c2nc(NC(=O)CCNC(=O)c3ccco3)sc2C)cc1	> 42 µM (inactive)
C/C(CC(=O)Nc1cccnc1)=N\NC(=O)C(C)Oc1ccc(Cl)cc1Cl (centres undefined)	> 42 µM (inactive)
N#CCSc1nc2c(c(C3CC=CCC3)c1C#N)CCC2 (centres undefined)	> 42 µM (inactive)
Cc1ccccc1-c1nnc(SCc2ccc(F)cc2)o1	> 42 µM (inactive)
Oc1ccccc1-c1cc(C(F)(F)C(F)F)[nH]n1	> 42 µM (inactive)
CC(=O)N1CCN(CC(O)COc2ccc(OCc3ccccc3)cc2)CC1 (centres undefined)	> 42 µM (inactive)
CCOc1ccc(CCNC(=O)COC(=O)COc2ccc(C(C)=O)cc2)cc1OCC	> 42 µM (inactive)
CCOC(=O)C1(c2ccccc2)CCN(CCC(=O)Nc2ccccc2OC)CC1	> 42 µM (inactive)
CCCCC(=O)NCCc1ccc(S(N)(=O)=O)cc1	> 42 µM (inactive)
O=C(Cc1ccccc1)N1CCCC1c1ccccc1 (centres undefined)	> 42 µM (inactive)
Cc1cc(C)cc(-n2ncc3c2CCCC3NC(=O)c2cc(C)[nH]n2)c1 (centres undefined)	> 42 µM (inactive)
Cc1nc2ccccc2n(CC(=O)Nc2cc(Cl)cc(Cl)c2)c1=O	> 42 µM (inactive)
Cc1ccc(-c2cc(C(=O)O)c3ccccc3n2)s1	> 42 µM (inactive)
CCc1c(C)c2ccc(OCC(=O)OC(C)C)c(C)c2oc1=O	> 42 µM (inactive)
CCOc1cc(NC(=O)c2cccs2)c(OCC)cc1NC(=O)CCC(=O)NCCN1CCOCC1	> 42 µM (inactive)
CCOC(=O)C1(Cc2cccc(OC)c2)CCCN(S(=O)(=O)c2cccnc2)C1 (centres undefined)	> 42 µM (inactive)
COc1ccc(NC(=O)c2cc(S(=O)(=O)Nc3ccc(OC)cc3)cs2)cc1	> 42 µM (inactive)
CCNC(=S)NNC(=O)c1ccc(=O)n(Cc2ccccc2)c1	> 42 µM (inactive)
COCCNC(=O)C(c1ccc(C)cc1)N(C(=O)CCC(=O)Nc1ccccn1)c1cccc(C)c1 (centres undefined)	> 42 µM (inactive)
CN(C)c1ccc(NS(=O)(=O)c2cccc(Cl)c2)cc1	> 42 µM (inactive)
O=C1C2CCCN2C(=S)N1C1CCCCC1 (centres undefined)	> 42 µM (inactive)
Cc1ccc2c(c1)C(O)(CC(=O)c1cccnc1)C(=O)N2 (centres undefined)	> 42 µM (inactive)
C/C(=N\NC(=O)Cc1csc(N2CCOCC2)n1)c1ccccc1	> 42 µM (inactive)
Cc1[nH]oc(=O)c1N=Nc1ccccc1	30.6 µM

Compound	AC50
CCC(C)(C)n1nnnc1C(c1ccc(OC)c(OC)c1)N1CCN(c2cccc(OC)c2)CC1 (centres undefined)	> 42 µM (inactive)
CCCCOc1ccc(C(O)C(CN2CCOCC2)c2ccccc2)cc1 (centres undefined)	> 42 µM (inactive)
O=C(Nc1ccccc1F)C1CCN(C(=O)Cc2ccccc2)CC1	> 42 µM (inactive)
CC(=O)c1ccccc1C(=O)N1CCCC(N2CCN(Cc3ccc4c(c3)OCO4)CC2)C1 (centres undefined)	> 42 µM (inactive)
O=c1cnc2ccccc2n1Cc1ccccc1C(F)(F)F	> 42 µM (inactive)
CC(C)Sc1ccc(C(=O)Nc2ccc(F)cc2F)cn1	> 42 µM (inactive)
O=C(C[n+]1ccc(C(=O)N/N=C/c2ccc(Cl)cc2Cl)cc1)c1ccccc1	> 42 µM (inactive)
CCC(C)[C@H](NC(=O)Nc1ccc(S(N)(=O)=O)cc1)C(=O)OC (some centres undefined)	> 42 µM (inactive)
CC(=O)Nc1ccc(S(=O)(=O)Nc2ccc3c(c2)C(=O)OC3)cc1	> 42 µM (inactive)
Cc1nn(C)c(C)c1-c1c(C#N)c(N)nc2c1CCCCCC2	16.9 µM
CN1C(=O)/C(=C/c2ccc(OCc3ccccc3F)cc2)NC1=S	> 42 µM (inactive)
Cn1nc(C(C)(C)C)c([N+](=O)[O-])c1C(=O)Nc1ccccc1	> 42 µM (inactive)
Cc1cc(C(=O)NNC(=O)c2ccc(C)s2)c(C)o1	> 42 µM (inactive)
CC[n+]1c(/C=C(\C)SC)sc2ccccc21	29.5 µM
O=C(Oc1ccc2c(c1)OCO2)c1cccs1	> 42 µM (inactive)
O=c1[nH]cnc2sc3c(c12)CCC3	> 42 µM (inactive)
COc1ccccc1CNC(=O)C1CCC(CNS(=O)(=O)c2ccc(C)cc2)CC1 (centres undefined)	> 42 µM (inactive)
COc1ccc(S(=O)(=O)Nc2ccc(NC(C)=O)cc2)cc1OC	> 42 µM (inactive)
CCOC(=O)c1ccc(NC(=O)NCc2ccncc2)cc1	> 42 µM (inactive)
COc1ccccc1OCCSc1nc2ccccc2n1CCC(=O)O	> 42 µM (inactive)
COC(=O)c1ccccc1N(C)S(C)(=O)=O	> 42 µM (inactive)
Clc1ccc(N=c2ssnc2Cl)nc1	0.78 µM
Cc1[nH]n(-c2ccccc2)c(=O)c1C(C[N+](=O)[O-])c1ccc(Br)cc1 (centres undefined)	> 42 µM (inactive)
CCOC(=O)CCN(c1ccccc1)S(=O)(=O)c1ccc(-c2ccc(=O)[nH]n2)s1	> 42 µM (inactive)

Source: PubChem BioAssay AID463204 (Broad Institute, 2010)
